pIC50: −log10 of the molar value.
Columns and labels:
Format in all cases: biochemical
EZH2 [Y641H] = EZH2 [Y641H] (Homo sapiens, UniProt Q15910, Y641H); experiment: Off-target methyltransferase profiling (MTase-Glo)
Method: (§1) To evaluate the off‐target effects of LZQ‐02‐023‐01 on methyltransferase activity, a panel of enzymes was assessed using the MTase‐Glo Methyltransferase Assay (Promega), following the manufacturer's instructions. The assay was performed by ICE Bioscience Inc. Briefly, LZQ‐02‐023‐01 was serially diluted 4‐fold in DMSO to generate a 10‐point concentration gradient, and the resulting solutions were dispensed into 384‐well white assay plates using an Echo acoustic liquid handler (Labcyte). Plates were centrifuged at 1000 rpm for 1 min to ensure even compound distribution. Following a 10‐min preincubation at 25 °C, 2 µL of a substrate solution containing S‐adenosylmethionine (SAM) and the specific methyltransferase substrate (Table S7, Supporting Information) was added to each well. After a brief centrifugation, plates were incubated at 25 °C for 180 min to allow the enzymatic methylation reaction to proceed. Subsequently, 1 µL of MTase‐Glo reagent was added, followed by centrifugation and incubation at 25 °C for 45 min. Then, 5 µL of MTase‐Glo detection solution was introduced into each well, and the plates were incubated for an additional 45 min at 25 °C after centrifugation.
(§2) Luminescence signals were directly proportional to methyltransferase activity, were recorded using a microplate reader (BMG LABTECH). Percent inhibition was calculated by normalizing luminescence intensities of compound‐treated wells to DMSO‐treated controls, and IC50 values were calculated using GraphPad Prism 8 software.

SETD1A = SETD1A (Homo sapiens, UniProt O15047); experiment: Off-target methyltransferase profiling (MTase-Glo)
Method: as §1, §2

EZH1 = EZH1 (Homo sapiens, UniProt Q92800); experiment: Off-target methyltransferase profiling (MTase-Glo)
Method: as §1, §2

G9A = G9A (Homo sapiens, UniProt Q96KQ7); experiment: Off-target methyltransferase profiling (MTase-Glo)
Method: as §1, §2

NSD2 = NSD2 (Homo sapiens, UniProt O96028); experiment: Off-target methyltransferase profiling (MTase-Glo)
Method: as §1, §2

EZH2 [A738T] = EZH2 [A738T] (Homo sapiens, UniProt Q15910, A733T); experiment: Off-target methyltransferase profiling (MTase-Glo)
Chain of EZH2 [A738T] (Q15910 1-751 isoform Q15910-2 A738T): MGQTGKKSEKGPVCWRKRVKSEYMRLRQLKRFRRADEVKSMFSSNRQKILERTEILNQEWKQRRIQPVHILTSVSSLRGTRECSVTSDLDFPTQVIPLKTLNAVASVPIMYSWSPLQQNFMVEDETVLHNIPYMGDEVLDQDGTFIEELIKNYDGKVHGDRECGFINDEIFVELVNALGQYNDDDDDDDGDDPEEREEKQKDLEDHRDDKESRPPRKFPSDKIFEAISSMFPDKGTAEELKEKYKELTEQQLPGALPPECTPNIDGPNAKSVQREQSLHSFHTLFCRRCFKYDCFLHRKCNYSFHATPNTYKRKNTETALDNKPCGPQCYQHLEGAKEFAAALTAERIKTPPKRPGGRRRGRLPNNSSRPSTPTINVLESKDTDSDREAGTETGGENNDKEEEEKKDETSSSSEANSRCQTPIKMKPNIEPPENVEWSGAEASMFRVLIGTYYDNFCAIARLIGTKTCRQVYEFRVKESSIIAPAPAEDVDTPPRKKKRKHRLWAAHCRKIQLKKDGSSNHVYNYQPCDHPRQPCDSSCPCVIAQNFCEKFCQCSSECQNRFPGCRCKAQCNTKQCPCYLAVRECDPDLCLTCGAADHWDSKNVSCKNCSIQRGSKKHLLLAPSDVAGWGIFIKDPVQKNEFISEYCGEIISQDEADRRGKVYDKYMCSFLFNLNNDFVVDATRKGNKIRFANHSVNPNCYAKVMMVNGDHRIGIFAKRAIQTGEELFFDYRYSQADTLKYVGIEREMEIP
Chain of EZH2 [A738T] (O75530 whole entry partner): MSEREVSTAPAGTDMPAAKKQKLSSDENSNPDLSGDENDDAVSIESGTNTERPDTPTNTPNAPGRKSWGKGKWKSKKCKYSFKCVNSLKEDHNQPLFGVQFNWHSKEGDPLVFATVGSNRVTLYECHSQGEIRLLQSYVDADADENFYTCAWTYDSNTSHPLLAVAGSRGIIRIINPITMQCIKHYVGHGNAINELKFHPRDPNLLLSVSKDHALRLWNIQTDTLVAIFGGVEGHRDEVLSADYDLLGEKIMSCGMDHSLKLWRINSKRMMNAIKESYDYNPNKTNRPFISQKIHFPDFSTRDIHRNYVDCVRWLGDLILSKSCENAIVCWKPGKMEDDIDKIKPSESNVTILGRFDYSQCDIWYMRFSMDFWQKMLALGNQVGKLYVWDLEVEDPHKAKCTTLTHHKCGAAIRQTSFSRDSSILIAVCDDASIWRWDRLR
Chain of EZH2 [A738T] (Q15022 whole entry partner): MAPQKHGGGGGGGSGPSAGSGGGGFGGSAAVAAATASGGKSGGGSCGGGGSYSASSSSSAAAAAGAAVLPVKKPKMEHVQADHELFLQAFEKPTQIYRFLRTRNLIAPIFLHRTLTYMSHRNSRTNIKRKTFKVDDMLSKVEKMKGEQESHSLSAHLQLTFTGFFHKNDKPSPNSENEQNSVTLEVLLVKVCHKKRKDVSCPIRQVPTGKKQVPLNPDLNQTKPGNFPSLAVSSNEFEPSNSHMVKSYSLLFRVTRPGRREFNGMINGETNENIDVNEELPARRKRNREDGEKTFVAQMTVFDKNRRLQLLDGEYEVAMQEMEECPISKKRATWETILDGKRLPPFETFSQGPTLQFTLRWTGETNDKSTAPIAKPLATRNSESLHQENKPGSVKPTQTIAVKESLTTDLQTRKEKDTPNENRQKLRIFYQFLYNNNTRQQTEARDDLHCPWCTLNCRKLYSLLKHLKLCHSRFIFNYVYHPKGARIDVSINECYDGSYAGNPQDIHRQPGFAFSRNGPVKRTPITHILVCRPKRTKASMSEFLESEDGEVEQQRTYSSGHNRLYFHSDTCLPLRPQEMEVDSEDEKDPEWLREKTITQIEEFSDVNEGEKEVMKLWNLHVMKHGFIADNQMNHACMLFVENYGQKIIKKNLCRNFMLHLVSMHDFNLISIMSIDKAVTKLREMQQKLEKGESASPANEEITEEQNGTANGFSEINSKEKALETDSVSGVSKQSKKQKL
Chain of EZH2 [A738T] (Q09028 whole entry partner): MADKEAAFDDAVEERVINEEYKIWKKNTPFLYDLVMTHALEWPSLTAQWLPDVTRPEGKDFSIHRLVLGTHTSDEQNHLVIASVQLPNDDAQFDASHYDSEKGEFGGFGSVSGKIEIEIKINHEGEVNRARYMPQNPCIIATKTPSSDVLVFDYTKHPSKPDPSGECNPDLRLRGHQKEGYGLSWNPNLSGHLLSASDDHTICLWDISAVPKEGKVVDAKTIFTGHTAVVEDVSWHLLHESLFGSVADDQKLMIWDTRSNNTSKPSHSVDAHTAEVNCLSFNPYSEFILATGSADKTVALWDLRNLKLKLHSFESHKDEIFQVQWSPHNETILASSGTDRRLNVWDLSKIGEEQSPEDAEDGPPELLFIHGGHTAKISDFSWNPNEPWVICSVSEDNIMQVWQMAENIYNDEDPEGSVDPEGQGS
Method: as §1, §2

PRMT1 = PRMT1 (Homo sapiens, UniProt Q99873); experiment: Off-target methyltransferase profiling (MTase-Glo)
Chain of PRMT1 (Q99873 whole entry, species assumed): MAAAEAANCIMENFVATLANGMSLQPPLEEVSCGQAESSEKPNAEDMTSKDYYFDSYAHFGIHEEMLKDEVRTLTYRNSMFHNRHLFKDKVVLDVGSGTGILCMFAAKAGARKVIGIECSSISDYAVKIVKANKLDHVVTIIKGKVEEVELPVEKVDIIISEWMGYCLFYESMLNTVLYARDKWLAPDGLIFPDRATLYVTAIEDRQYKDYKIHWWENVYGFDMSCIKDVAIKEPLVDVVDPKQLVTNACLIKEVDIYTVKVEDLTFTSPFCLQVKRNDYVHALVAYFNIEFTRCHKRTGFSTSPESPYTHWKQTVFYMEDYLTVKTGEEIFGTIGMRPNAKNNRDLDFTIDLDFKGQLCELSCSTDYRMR
Method: as §1, §2

GLP = GLP (Homo sapiens, UniProt Q9H9B1); experiment: Off-target methyltransferase profiling (MTase-Glo)
Method: as §1, §2

PRMT8 = PRMT8 (Homo sapiens, UniProt Q9NR22); experiment: Off-target methyltransferase profiling (MTase-Glo)
Method: as §1, §2

METTL3/14 = METTL3/14 (Homo sapiens, UniProt Q86U44); experiment: Off-target methyltransferase profiling (MTase-Glo)
Chain of METTL3/14 (Q86U44 whole entry, species assumed): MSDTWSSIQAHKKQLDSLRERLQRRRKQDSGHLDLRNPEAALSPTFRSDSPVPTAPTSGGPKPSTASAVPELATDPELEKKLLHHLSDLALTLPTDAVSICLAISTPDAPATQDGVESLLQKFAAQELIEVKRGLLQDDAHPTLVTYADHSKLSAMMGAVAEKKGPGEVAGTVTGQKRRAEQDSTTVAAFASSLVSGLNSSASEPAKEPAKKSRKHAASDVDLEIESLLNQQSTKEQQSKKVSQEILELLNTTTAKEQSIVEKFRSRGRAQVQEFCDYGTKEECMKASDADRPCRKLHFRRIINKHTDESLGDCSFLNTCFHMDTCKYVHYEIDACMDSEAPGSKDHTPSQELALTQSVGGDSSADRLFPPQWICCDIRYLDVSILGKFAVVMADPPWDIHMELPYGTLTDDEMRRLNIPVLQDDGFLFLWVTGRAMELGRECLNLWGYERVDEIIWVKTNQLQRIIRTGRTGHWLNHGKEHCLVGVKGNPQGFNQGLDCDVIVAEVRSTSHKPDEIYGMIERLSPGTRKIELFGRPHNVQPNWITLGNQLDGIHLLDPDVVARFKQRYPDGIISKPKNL
Chain of METTL3/14 (Q9HCE5 whole entry partner, species assumed): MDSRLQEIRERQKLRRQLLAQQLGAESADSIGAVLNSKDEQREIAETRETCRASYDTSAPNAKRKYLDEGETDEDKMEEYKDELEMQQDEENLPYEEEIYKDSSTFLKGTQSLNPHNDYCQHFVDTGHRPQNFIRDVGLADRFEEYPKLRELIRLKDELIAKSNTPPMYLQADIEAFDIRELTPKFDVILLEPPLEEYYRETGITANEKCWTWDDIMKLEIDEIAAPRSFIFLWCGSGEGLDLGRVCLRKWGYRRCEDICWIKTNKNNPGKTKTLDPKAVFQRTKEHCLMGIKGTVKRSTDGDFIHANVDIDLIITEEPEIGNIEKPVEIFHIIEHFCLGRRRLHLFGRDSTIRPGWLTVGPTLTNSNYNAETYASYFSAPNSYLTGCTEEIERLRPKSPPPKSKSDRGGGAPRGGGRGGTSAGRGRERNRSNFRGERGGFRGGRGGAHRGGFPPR
Method: as §1, §2

SUV39H2 = SUV39H2 (Homo sapiens, UniProt Q9H5I1); experiment: Off-target methyltransferase profiling (MTase-Glo)
Chain of SUV39H2 (Q9H5I1 whole entry, species assumed): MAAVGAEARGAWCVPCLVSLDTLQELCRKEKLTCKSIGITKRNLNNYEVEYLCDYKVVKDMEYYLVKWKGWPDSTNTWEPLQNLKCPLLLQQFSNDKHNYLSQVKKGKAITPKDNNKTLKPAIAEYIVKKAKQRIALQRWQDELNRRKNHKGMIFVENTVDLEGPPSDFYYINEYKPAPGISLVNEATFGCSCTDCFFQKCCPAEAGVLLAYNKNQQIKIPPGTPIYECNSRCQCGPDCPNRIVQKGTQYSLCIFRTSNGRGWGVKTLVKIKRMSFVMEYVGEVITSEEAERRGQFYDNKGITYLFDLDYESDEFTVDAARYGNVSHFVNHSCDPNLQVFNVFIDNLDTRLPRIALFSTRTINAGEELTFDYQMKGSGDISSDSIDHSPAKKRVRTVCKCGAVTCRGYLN
Method: as §1, §2

EZH2 [Y641N] = EZH2 [Y641N] (Homo sapiens, UniProt Q15910, Y641N); experiment: Off-target methyltransferase profiling (MTase-Glo)
Method: as §1, §2

NSD3 = NSD3 (Homo sapiens, UniProt Q9BZ95); experiment: Off-target methyltransferase profiling (MTase-Glo)
Method: as §1, §2

SUV420H1 = SUV420H1 (Homo sapiens, UniProt Q4FZB7); experiment: Off-target methyltransferase profiling (MTase-Glo)
Method: as §1, §2

SUV39H1 = SUV39H1 (Homo sapiens, UniProt O43463); experiment: Off-target methyltransferase profiling (MTase-Glo)
Method: as §1, §2

EZH2 = EZH2 (Homo sapiens, UniProt Q15910); experiment: Off-target methyltransferase profiling (MTase-Glo)
Method: as §1, §2

DNMT1 = DNMT1 (Homo sapiens, UniProt P26358); experiment: Off-target methyltransferase profiling (MTase-Glo)
Method: as §1, §2

PRMT6 = PRMT6 (Homo sapiens, UniProt Q96LA8); experiment: Off-target methyltransferase profiling (MTase-Glo)
Method: as §1, §2

NSD1 = NSD1 (Homo sapiens, UniProt Q96L73); experiment: Off-target methyltransferase profiling (MTase-Glo)
Method: as §1, §2

PRMT5 = PRMT5 (Homo sapiens, UniProt O14744); experiment: Off-target methyltransferase profiling (MTase-Glo)
Method: as §1, §2

SETD2 = SETD2 (Homo sapiens, UniProt Q9BYW2); experiment: Off-target methyltransferase profiling (MTase-Glo)
Method: as §1, §2

EZH2 [Y641F] = EZH2 [Y641F] (Homo sapiens, UniProt Q15910, Y641F); experiment: Off-target methyltransferase profiling (MTase-Glo)
Method: as §1, §2

DOT1L = DOT1L (Homo sapiens, UniProt Q8TEK3); experiment: Off-target methyltransferase profiling (MTase-Glo)
Method: as §1, §2

SMYD2 = SMYD2 (Homo sapiens, UniProt Q9NRG4); experiment: Off-target methyltransferase profiling (MTase-Glo)
Method: as §1, §2

SETD1B = SETD1B (Homo sapiens, UniProt Q9UPS6); experiment: Off-target methyltransferase profiling (MTase-Glo)
Method: as §1, §2

PRMT4 = PRMT4 (Homo sapiens, UniProt Q86X55); experiment: Off-target methyltransferase profiling (MTase-Glo)
Chain of PRMT4 (Q86X55 whole entry, species assumed): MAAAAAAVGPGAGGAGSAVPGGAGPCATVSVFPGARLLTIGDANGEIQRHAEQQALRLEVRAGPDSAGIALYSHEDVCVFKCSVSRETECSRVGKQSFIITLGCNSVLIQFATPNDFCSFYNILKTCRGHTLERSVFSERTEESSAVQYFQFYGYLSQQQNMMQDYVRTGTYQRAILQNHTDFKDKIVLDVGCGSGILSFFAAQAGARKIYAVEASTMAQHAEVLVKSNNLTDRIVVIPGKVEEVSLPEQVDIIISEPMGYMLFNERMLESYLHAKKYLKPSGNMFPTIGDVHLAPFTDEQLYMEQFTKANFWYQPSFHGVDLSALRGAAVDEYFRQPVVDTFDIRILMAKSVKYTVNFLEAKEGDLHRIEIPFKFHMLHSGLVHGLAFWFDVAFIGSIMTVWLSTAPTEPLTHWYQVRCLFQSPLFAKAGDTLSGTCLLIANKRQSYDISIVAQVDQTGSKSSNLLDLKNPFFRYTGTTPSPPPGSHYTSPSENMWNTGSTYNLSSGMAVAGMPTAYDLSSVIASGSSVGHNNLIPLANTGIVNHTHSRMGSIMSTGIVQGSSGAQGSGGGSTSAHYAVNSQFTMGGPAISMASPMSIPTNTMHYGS
Method: as §1, §2

MLL3 = MLL3 (Homo sapiens, UniProt Q8NEZ4); experiment: Off-target methyltransferase profiling (MTase-Glo)
Method: as §1, §2

EZH2 [A677G] = EZH2 [A677G] (Homo sapiens, UniProt Q15910, A677G); experiment: Off-target methyltransferase profiling (MTase-Glo)
Method: as §1, §2

METTL10 = system: T1, METTL10; experiment: MTase-Glo screening assay, METTL10 with Histone H4 peptide substrate; details: 10 µM
T1 construct: purchased ICE Bioscience Inc
Method: To identify METTL10 inhibitors, an in‐silico screening was first conducted on an in‐house compound library comprising approximately 6000 structurally diverse molecules. Molecular docking simulations with the METTL10 protein identified 111 candidate compounds for further analysis. The methyltransferase activity of these candidates was assessed using the MTase‐Glo Methyltransferase Assay (Promega, V7601) according to the manufacturer's protocol. Briefly, the candidate compounds were preincubated with His‐METTL10 protein (1 µg) at 37 °C for 1 h in a methylation reaction buffer (50 mM Tris‐HCl (pH 8.0), 20 mM KCl, 5 mM DTT, 4 mM EDTA, and 20 µM SAM), followed by the addition of either the Histone H4 or PIAS3 peptide substrate for an additional 1 h. The reaction was then subjected to MTase‐Glo reagent buffer for 30 min, followed by MTase‐Glo detection buffer for another 30 min. Luminescence was measured using a luminometer (Promega), and IC50 values were calculated using GraphPad Prism 8 software.

Cc1ccc(Nc2ncc3c(n2)N(C)C(=O)N(c2cccc(N)c2)C3)cn1 [LZQ-02-023-01, Three‐(3‐aminophenyl)‐1‐methyl‐7‐((6‐methylpyridin‐3‐yl)amino)‐3,4‐dihydropyrimido [4,5‐d] pyrimidin‐2 (1H)‐one] showed a pIC50 (EZH2 [Y641H]) of 5.46, a pIC50 (SETD1A) of 4.73 and a pIC50 (EZH1) of 4.54. It also gave a pIC50 (G9A) of 4.41, a pIC50 (NSD2) of 5.02 and a pIC50 (EZH2 [A738T]) of 5.13. It also gave a pIC50 (PRMT1) of 4.71, a pIC50 (GLP) of 4.62 and a pIC50 (PRMT8) of 4.57. It also gave a pIC50 (METTL3/14) of 4.77, a pIC50 (SUV39H2) of 4.96 and a pIC50 (EZH2 [Y641N]) of 4.91. The pIC50 (NSD3) was 5.13, the pIC50 (SUV420H1) was 4.88 and the pIC50 (SUV39H1) was 4.73. The pIC50 (EZH2) was 4.83, the pIC50 (DNMT1) was 4.62 and the pIC50 (PRMT6) was 4.96. It also gave a pIC50 (NSD1) of 4.88, a pIC50 (PRMT5) of 4.88 and a pIC50 (SETD2) of 4.73. For the same compound, the pIC50 (EZH2 [Y641F]) was 5.53, the pIC50 (DOT1L) was 4.88 and the pIC50 (SMYD2) was 5.04. The pIC50 (SETD1B) was 5.05, the pIC50 (PRMT4) was 4.72 and the pIC50 (MLL3) was 5.02. For the same compound, the pIC50 (EZH2 [A677G]) was 4.86 and the “Inhibition of METTL10 activity toward histone H4” value (METTL10) was “significantly inhibited”.

From PMC12752606, “METTL10‐Mediated PIAS3 Methylation Links Purine Metabolism to Gastric Cancer Progression” (Advanced Science, 2025)
